Here are results for 14 molecules from patent US9273011B2, “Substituted pyridazines for the treatment of pain” (INHIBITAXIN LIMITED, priority 2011, dated 2016).

What is called IC50 is the concentration that gives 50% inhibition.

Each structure is given as a SMILES string.

For the experiment, the target named is human Autotaxin enzyme (Homo sapiens (Human), UniProt Q13822). Description: Autotaxin FS-3 assay. The conditions noted are these: Autotaxin FS3 assay; human Autotaxin enzyme 2 nM; inhibition of FS-3 fluorescence; range and n in brackets. Type of experiment: biochemical. The source says:
Autotaxin (ATX) converts Lysophosphatidyl choline (LPC) to Lysophosphatidic acid (LPA) via its Lysophosphodiesterase (lysoPLD) activity. FS-3 is an LPC analogue that is conjugated with both a fluorophore and a quencher. In its native state the quencher interferes with the fluorophore's fluorescence. Once autotaxin cleaves FS-3, the fluorophore becomes liberated from the quencher, resulting in increased fluorescence. Thus increase in fluorescence is a measure of ATX activity. Any compound that inhibits the activity of Autotaxin will show less fluorescence read in presence of FS-3, which could be measured by fluorimetric analysis. See U.S. Pat. No. 7,989,663.
Autotaxin Inhibitor Screening Kits are available from Echelon Biosciences, Logan, Utah, USA [http://echelon-inc.com/, accessed 6 Oct. 2011]. Using the methods of Gierse et al [“A novel autotaxin inhibitor reduces lysophosphatidic acid levels in plasma and the site of inflammation”, Journal of Pharmacology and Experimental Therapeutics, vol 334(1), 310-317 (2010), see in particular page 312 lines 4-14], the potency of the compounds of the invention as inhibitors of human autotaxin enzyme may be measured (as IC50 values).
The FS-3 assay to identify ATX inhibitors was preformed as follows: 3 μl of standard inhibitor (referred to as PF-8380 in Gierse et al above) and test compounds were added to an assay plate. To each assay well, containing test compounds or standard, 24 μl of human Autotaxin enzyme (2 nM) was added. The assay plate was then centrifuged at 1000 rpm for 1 minute and allowed to incubate at 37° C. for 30 minutes. Following the incubation period each plate was read in a fluorescence plate reader (Spectra Max M5: excitation: 494 nm and emission: 520 nm) and IC50 values were derived from inhibition of FS-3 fluorescence (as described above).

`CCN(Cc1ccncc1)c1ccc(C(=O)Nc2cc(-c3ccccc3)nn2C)nn1` [Example 4, 6-[ethyl(pyridin-4-ylmethyl)amino]-N-(1-methyl-3-phenyl-1H-pyrazol-5-yl)pyrid azine-3-carboxamide] gave an IC50 of 65.2 nM.

The molecule `Cc1noc(NC(=O)c2ccc(NC(CO)Cc3ccc(Cl)cc3)nn2)c1C` (centres unmarked) [Example 3, 6-{[1-(4-chlorobenzyl)-2-hydroxyethyl]amino}-N-(3,4-dimethylisoxazol-5-yl)pyridazine-3-carboxamide] returned an IC50 of 37.6 nM. Compared with the last molecule, the IC50 is about 1.7-fold lower. In the case of `Cc1noc(NC(=O)c2ccc(NC3CCN(Cc4ccccc4)C3)nn2)c1C` (centres unmarked) [Example 12, 6-[(1-benzylpyrrolidin-3-yl)amino]-N-(3,4-dimethyl-isoxazol-5-yl)pyridazine-3-carboxamide] it was 357 nM; in that of `Cc1noc(NC(=O)c2ccc(NCc3cccc4ccccc34)nn2)c1C` [Example 10, N-(3,4-dimethylisoxazol-5-yl)-6-[(1-naphthylmethyl)-amino]pyridazine-3-carboxamide], 114 nM; in that of `Cc1onc(-c2ccccc2)c1CNc1ccc(C(=O)NCc2cc(F)cc(F)c2)nn1` [Example 14, N-(3,5-difluorobenzyl)-6-{[(5-methyl-3-phenylisoxazol-4-yl)methyl]amino}pyridazine-3-carboxamide], 646 nM. `Cc1cc(NC(=O)c2ccc(NC(CO)Cc3ccc(Cl)cc3)nn2)n(C)n1` (centres unmarked) [Example 13, 6-{[1-(4-chlorobenzyl)-2-hydroxyethyl]amino}-N-(1,3-dimethyl-1H-pyrazol-5-yl)pyridazine-3-carboxamide] yielded a concentration for half-maximal inhibition (IC50) of 507 nM.

As to `COc1ccc(C(CCO)Nc2ccc(C(=O)Nc3onc(C)c3C)nn2)cc1` (centres unmarked) [Example 5, N-(3,4-dimethylisoxazol-5-yl)-6-{[3-hydroxy-1-(4-methoxyphenyl)propyl]amino}pyridazine-3-carboxamide], the IC50 was found to be 69.5 nM. With `COc1ccc(C(CCO)Nc2ccc(C(=O)NCc3cc(F)cc(F)c3)nn2)cc1` (centres unmarked) [Example 2, N-(3,5-difluorobenzyl)-6-{[3-hydroxy-1-(4-methoxy-phenyl)propyl]amino}pyridazine-3-carboxamide] the figure was 24.9 nM; with `Cc1noc(NC(=O)c2ccc(NC(C)c3ccc(Cl)cc3)nn2)c1C` (centres unmarked) [Example 8, 6-{[1-(4-chlorophenyl)ethyl]amino}-N-(3,4-dimethyl-isoxazol-5-yl)pyridazine-3-carboxamide], 100 nM. In the case of `COc1ccc(C(CCO)Nc2ccc(C(=O)NCc3cc(F)ccc3F)nn2)cc1` (centres unmarked) [Example 1, N-(2,5-difluorobenzyl)-6-{[3-hydroxy-1-(4-methoxy-phenyl)propyl]amino}pyridazine-3-carboxamide] it was 14 nM. With `Cc1noc(NC(=O)c2ccc(NCc3cccc(Cl)c3Cl)nn2)c1C` [Example 11, 6-[(2,3-dichlorobenzyl)amino]-N-(3,4-dimethyl-isoxazol-5-yl)pyridazine-3-carboxamide] the figure was 248 nM; with `Cc1ccc(F)c(CNc2ccc(C(=O)Nc3onc(C)c3C)nn2)c1F` [Example 9, 6-[(2,6-difluoro-3-methylbenzyl)amino]-N-(3,4-dimethylisoxazol-5-yl)pyridazine-3-carboxamide], 103 nM; with `O=C(NCCCn1ccnc1)c1ccc(NCc2cc(Cl)cc(Cl)c2)nn1` [Example 7, 6-[(3,5-dichlorobenzyl)amino]-N-[3-(1H-imidazol-1-yl)propyl]pyridazine-3-carboxamide], 89.2 nM. `O=C(NCCN1CCNC1=O)c1ccc(NC2Cc3ccccc3C2)nn1` [Example 6, 6-(2,3-dihydro-1H-inden-2-ylamino)-N-[2-(2-oxoimidazolidin-1-yl)ethyl]pyridazine-3-carboxamide] returned a half-maximal inhibitory concentration (IC50) of 73.8 nM.
